# Assay results published in a melting point compilation (Tetko et al.; mined from patent text by program, amines drawn as free bases though some values may be those of a salt).
row,melting point [°C],Compound
1,121 to 123,CCOC(=O)C(=Cc1cccn2cc(C)nc12)N=[N+]=[N-]
2,156 to 158,Cn1nnnc1C(C=CC=O)=C(c1ccc(F)cc1)c1ccc(F)cc1
3,96 to 98,O=C(O)c1cccc(COc2ccccc2Cl)c1OCc1ccccc1Cl
4,102 to 104,NS(=O)(=O)c1c(C(F)F)nsc1OCC(F)(F)F
5,90 to 91,CN(C)CCOc1ccc(/C(=C(\c2ccccc2)C(F)(F)F)c2ccccc2)cc1
6,142 to 143,O=C(Nc1ccc(OCCN2CCOCC2)c2ccccc12)c1cccc(-n2cccc2)c1
7,138,CCC(NS(=O)(=O)c1ccc(Cl)c(Cl)c1)c1cnc(Oc2ccc(F)cc2)n1CC (stereo not given)
8,126 to 127,CCOC(=O)C=CC=Cc1ccc(-n2ccnc2)cc1
9,225 to 227,CCCn1cc2c(n1)c(N)nc1ccccc12
10,291 to 294,CC(C)(C)NC1=NS(=O)(=O)c2ccc(Cl)cc2N1
11,154 to 155,CC1(C)OCC(CNc2c([N+](=O)[O-])cnc3cc(OCc4ccccc4)ccc23)O1 (stereo not given)
12,151 to 152,COC(=O)c1cc2nc(C)[nH]c2cc1C(=O)OC
13,132 to 136,CC(C)(C)c1ccc(-c2ccc(-c3ccc(Br)s3)s2)cc1
14,50 to 53,CCOC(=O)C(=CNc1ccnn1CC)C(=O)OCC
15,178 to 179,NC(=O)CNC(=O)c1ccc(F)c(-c2ccc(F)c3cc(Cc4cc(F)cc(Cl)c4)sc23)c1
16,234 to 235,O=C(N1CCC(c2ccncc2)CC1)N1CCN(S(=O)(=O)c2ccc(Cl)cc2)CC1
17,82.5 to 84,Cc1cc(Br)c(Cl)cc1Cl
18,> 200,CN(C)CCCOc1ccc(C[C@H](NC(=O)[C@@H]2CCCN2S(=O)(=O)c2ccc(Cl)s2)C(=O)O)cc1
19,101,Cc1ccc(NC(=O)c2ccc(C3OCC(SC(C)C(O)(Cn4cncn4)c4ccc(F)cc4F)CO3)cc2)cc1 (stereo not given)
20,135 to 145,Cc1noc(NS(=O)(=O)c2ccccc2-c2ccc(-c3ncco3)cc2CN(C)C(=O)c2cc3ccccc3[nH]2)c1C
21,131 to 132,Cc1c(C2=NOC(CN3CCC(Cc4ccc(F)cc4)CC3)C2)cc2oc(=O)[nH]c2c1Cl (stereo not given)

row,melting point [°C],Compound
1,106 to 108,CCCCCCCCCCC[C@@H]1CC(O)=C(CCCCCC)C(=O)O1
2,105 to 106,NS(=O)(=O)OCCCOc1ccc(-n2ccnc2)cc1
3,207 to 210,COc1ccc(S(=O)(=O)N(Cc2ccccc2)c2c(C(=O)O)cnc3c2c(C)nn3-c2ccccc2)cc1
4,105 to 107,COc1ccc(N2C(=O)C(N3C(=O)c4ccccc4C3=O)C2C(C)=Cc2ccccc2)cc1 (stereo not given)
5,134,Clc1ccc(C=Cc2ncon2)cc1
6,150 to 152,Cc1cnc(CCCCNc2ncc(Cc3ccc(CO)nc3)c(=O)[nH]2)c(Br)c1
7,59 to 60,CCCc1c(OCCC2Cc3cc(CC(=O)OC)ccc3O2)ccc(C(C)=O)c1O (stereo not given)
8,150 to 152,NC1=NN(c2ccccc2)C(c2ccc(Cl)c(Cl)c2)C1 (stereo not given)
9,77 to 77.5,Cc1noc(CC(N)=O)n1
10,144 to 150,Nc1ccc2c(c1)C(CN1CCCCC1)CO2 (stereo not given)
11,240 to 242,CC(C)=CC(=O)N1CC(NC(=O)Nc2cccc(C(=O)O)c2)C(=O)N(CC(=O)c2ccccc2C)c2cc(C)ccc21 (stereo not given)
12,76,CC(=O)N[C@@H](Cc1ccc(-c2c3ccccc3cc3ccccc23)cc1)C(=O)O
13,205 to 209,CN(C)Cc1cc(C(=O)Nc2nc(-c3ccco3)c(C(=O)c3ccccc3)s2)ccn1
14,208 to 209,CS(=O)(=O)c1c(C(=O)O)ccc(Cl)c1F
15,110 to 111,c1ccc(-c2nc(COc3ccc(CCCn4ccnc4)cc3)cs2)cc1
16,> 250,Cc1c(-c2ccc3c(c2)C(N2Cc4ccccc4C2=O)C(O)C(C)(C)O3)c(=O)c1=O (stereo not given)
17,104 to 105,CC(C)(O)CC12C=CC=CC1C(=O)NC2=O (stereo not given)
18,113 to 115,O=C(O)c1ccc(NCCCCCCCCc2ccccc2)cc1
19,175 to 177,Cc1ccc(CC(N)=O)cn1
20,138 to 139,COCCCS(=O)(=O)NC(=O)/C=C/c1cc(OC(C)C)nn1Cc1ccc(C(F)(F)F)cc1Cl

# Continued, molecule first:
row,Compound,melting point [°C]
1,COc1ccc(C2(CCN3CCC(c4nc5ccccc5s4)CC3)CCN(C(=O)c3ccccc3)C2)cc1OC (stereo not given),60 to 62
2,Cc1nc2nc(-c3ccc(Cl)cc3)nn2c(=S)n1C,> 300
3,CCCCCCCCc1cc2c(s1)-n1c(C)nnc1CN=C2c1ccccc1Cl,80 to 82
4,N#CCCNC(=O)c1cccc(-c2cccc(Oc3ccccc3Cl)n2)c1,82 to 83
5,O=C(CCC1CCN(Cc2ccccc2)CC1)c1cc2c3c(c1)CCN3C(=O)CC2,103 to 104
6,COc1ccc(C(=O)O)nc1C,183
7,CC(=O)c1cccc2c1C1(COc3cc4c(cc31)OCCO4)C(=O)N2C (stereo not given),234 to 235
8,CC(C)(C)c1cc(Br)c(O)c(Br)c1,65 to 69
9,CN(c1cccc2cc(-c3nccs3)[nH]c12)S(=O)(=O)c1ccsc1C(N)=O,269
10,CNc1c([N+](=O)[O-])c(Br)nn1Cc1ccccc1,116
11,Cc1nn(-c2c(Cl)cc(C(F)(F)F)cc2Cl)nc1C(=O)Nc1ccccc1,185 to 186
12,COC(=O)c1cccc2c1ccn2Cc1ccc(OCc2ccc3ccccc3n2)cc1,128 to 131
13,COC(=O)Nc1ccc2ccccc2c1-c1c(P(=O)(c2ccccc2)c2ccccc2)ccc2ccccc12,128
14,c1ccc2c(c1)C(=NOCCN1CCCCC1)c1ccccc1C1CC21 (stereo not given),75 to 76
15,CC(=O)n1cc(C#N)c(-c2ccc(F)c(Cl)c2F)c1,182 to 183
16,CC(Cl)N1C(=O)CCC1=O (stereo not given),83.5 to 84.5
17,CCCCOc1ccc2cc(C(C)NC(N)=O)ccc2c1 (stereo not given),135 to 137
18,NS(=O)(=O)c1cccc(-c2noc(-c3cnn4c(C(F)F)cc(-c5ccc(Cl)cc5)nc34)n2)c1,231
19,CC(C)(C)OC(=O)NC(Cc1ccc(OCc2ccccc2)cc1)CN1CCOCC1 (stereo not given),98 to 99
20,C#CC(C)NCC(O)COc1ccccc1C=Cc1nnc(C)s1 (stereo not given),143 to 145

row,Compound,melting point [°C]
1,Cc1cc(O)ccc1N1CCc2c(C)nc3ccccc3c21,315 to 318
2,C#CCCCCCCCCCCOc1cccc(C(N)=O)c1,106 to 108
3,COC(=O)Cc1ccc(C(O)(C#N)c2ccccc2)n1C (stereo not given),137 to 138
4,CC(=O)Oc1ccccc1NC(=O)c1cc(Cl)c(OC(C)=O)c(Cl)c1,154 to 156
5,O=C(Nc1n[nH]c(=S)s1)NC(Cc1ccccc1)C(=O)NCc1cccc2ccccc12 (stereo not given),234 to 235
6,O=C1CCC(c2ccccc2F)(c2ccccc2F)[C@@H]2CN(Cc3ccccc3)C[C@H]12 (racemic),138
7,O=C1OCc2c1cc1ccc3c(c1c2-c1ccc(Cl)cc1)OCO3,225 to 227
8,CCn1cc(CN(C(=O)C2CCCc3c(OCCCN(C)C)cccc32)c2ccc(C(C)C)cc2)cn1 (stereo not given),143
9,Nc1nc(C2CCN(C(=O)c3ccccc3)CC2)c2ccccc2n1,138
10,CC(C)(C)OC(=O)NC[C@H]1C[C@H]1CON1C(=O)c2ccccc2C1=O (relative stereo),96 to 97
11,COC(=O)C(C)=C(C(=O)OC)C1C=CC=CC1(C)C(C(=O)OC)=C(C)C(=O)OC (stereo not given),90
12,CCOC(=O)C=Cc1cc2c(cn1)[nH]c1ccccc12,132 to 134
13,CC12CCC3C(CCC4=CC(=O)CCC43C=O)C1CCC2O (stereo not given),125 to 127
14,CC(C)(C)c1cc(C(=O)Sc2ccccn2)cc(C(C)(C)C)c1,73 to 74
15,O=C(NCc1ccccn1)Nc1cc(N2C(=O)CCc3ccccc32)ccn1,194 to 195
16,Cc1c(C(=O)CC(C)C)cc2c(c1C)OC(C(=O)O)C2 (stereo not given),117
17,c1ccc(Oc2ccc(N3CCNCC3)nc2)cc1,80.5 to 83
18,CCOC(=O)c1cn(C)c2cnc3cc(N4CCCC(C)(C)C4)c(F)cc3c2c1=O,198 to 200
19,CCCCCCCCc1c(CCCCCCCC)c(-c2ccccc2)n(-c2ccc(C)cc2)c1-c1ccccc1,100 to 101
20,COCC(=O)N(CC(C)=NOC)c1c(C)cccc1C,56 to 57

row,Compound,melting point [°C]
1,OCc1csc(N2CCCCC2)n1,89 to 90
2,CS(=O)(=O)Oc1cccnc1,56 to 58
3,Cc1ccc2c(c1)CC(n1ccnc1C(N)=O)C2=O (stereo not given),196
4,CNc1nc(-c2cccc(NC(=O)c3cccnc3)c2)c2cc(OC)c(OC)cc2n1,251 to 253
5,Cc1cc2c(CN3CCC(C)CC3)c(CO)c(Cl)nc2cc1Cl,170 to 172
6,COc1cc(-c2ccc(NCc3ccccc3)nn2)ccc1OC(F)F,136
7,COC(=O)c1cccc(-c2cccnc2)c1,125 to 126
8,Cc1cccc(Cl)c1C(=O)N[C@@H](Cc1ccc(-c2c(C(F)(F)F)cc(C)n(C)c2=O)cc1)C(=O)O,220 to 223
9,CC(C)C1(C#N)c2ccccc2C=CN1C(=O)c1ccccc1 (stereo not given),124 to 126
10,Cc1cc(C(=O)Nc2cccc(C3CN4CCSC4=N3)c2)n(C)n1 (stereo not given),163 to 164
11,FC(F)(F)c1ccc(NC(=S)Nc2ncccc2OCc2ccccc2)cc1,165 to 167
12,NNc1ccc2c(=O)n(Cc3ccccc3)cnc2c1,165 to 169
13,Cc1nc(C)c(C=O)c(N)n1,148 to 156
14,CC(=O)OC1CC2C1N(C(C)=O)C(=O)N2C(C)=O (stereo not given),148 to 150
15,CC(C)(C)OC(=O)N1CCC[C@@H](O)[C@H](C(=O)O)C1,98.5 to 102
16,CCCCCC12CCC(C(=O)O)(CC1)CC2,160
17,CCCCNC(=O)NS(=O)(=O)c1ccc(CCNC(=O)N2Cc3ccccc3C2=O)cc1,188 to 190
18,CC(C)C(=O)Nc1ccc(OCC(O)CNC(C)(C)C)c(C#N)c1 (stereo not given),118 to 121
19,CCCCCc1c(C(C)C)nc(C(C)C)c(CO)c1-c1cccc(O)c1,121 to 122
